Reference: patent US20170210751A1, “PRMT5 INHIBITORS AND USES THEREOF” (Epizyme, Inc., priority 2014, published 2017)

What follows are molecules tested against T1, PRMT5/MEP50 (Homo sapiens, UniProt O14744) (assay: PRMT5 Biochemical Assay (PRMT5/MEP50 enzyme assay on peptide substrate, 3H-SAM Flashplate)). Conditions: PRMT5/MEP50 4 nM, 3H-SAM 75 nM, peptide 40 nM, 30 min preincubation at 25 degrees Celsius.
T1 construct: Flag-PRMT5; made in house; host or cells: Spodoptera frugiperda (SF9) insect cells, baculovirus (pDEST8)
T1 sequence (O14744 with tags, fused parts or gaps): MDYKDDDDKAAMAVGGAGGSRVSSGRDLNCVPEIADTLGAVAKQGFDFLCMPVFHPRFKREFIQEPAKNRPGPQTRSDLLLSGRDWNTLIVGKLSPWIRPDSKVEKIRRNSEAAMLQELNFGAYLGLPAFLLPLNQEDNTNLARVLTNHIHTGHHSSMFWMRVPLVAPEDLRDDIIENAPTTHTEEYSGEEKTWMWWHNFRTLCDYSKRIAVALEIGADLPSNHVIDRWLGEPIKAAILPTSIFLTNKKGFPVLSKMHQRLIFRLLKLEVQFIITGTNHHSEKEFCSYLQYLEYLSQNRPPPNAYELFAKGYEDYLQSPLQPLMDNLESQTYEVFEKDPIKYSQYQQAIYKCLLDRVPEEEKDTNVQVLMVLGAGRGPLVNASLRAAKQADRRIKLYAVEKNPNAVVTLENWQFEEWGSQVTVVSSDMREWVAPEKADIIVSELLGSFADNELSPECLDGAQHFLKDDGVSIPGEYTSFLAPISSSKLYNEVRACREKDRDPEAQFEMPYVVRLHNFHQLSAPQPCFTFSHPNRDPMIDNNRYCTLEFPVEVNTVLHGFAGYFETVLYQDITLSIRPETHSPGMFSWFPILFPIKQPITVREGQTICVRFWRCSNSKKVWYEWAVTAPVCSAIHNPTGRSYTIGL
T1 sequence (Q9BQA1 with tags, fused parts or gaps partner limits assumed): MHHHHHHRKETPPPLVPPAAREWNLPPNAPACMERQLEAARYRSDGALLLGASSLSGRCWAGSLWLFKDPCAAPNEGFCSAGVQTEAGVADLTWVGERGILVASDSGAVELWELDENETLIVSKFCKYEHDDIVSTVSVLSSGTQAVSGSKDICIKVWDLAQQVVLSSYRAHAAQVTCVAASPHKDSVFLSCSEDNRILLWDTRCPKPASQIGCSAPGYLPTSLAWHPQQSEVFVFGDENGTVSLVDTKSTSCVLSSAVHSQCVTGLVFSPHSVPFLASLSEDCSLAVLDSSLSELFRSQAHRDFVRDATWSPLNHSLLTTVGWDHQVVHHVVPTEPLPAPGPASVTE
Method in brief: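 FLAG-PRMT5/His-MEP50 from Sf9 cells (4 nM) preincubated 30 min at 25 °C with compounds, then reacted with 75 nM 3H-SAM and 40 nM biotinylated histone H4 1-15 peptide in Bicine pH 7.6, 1% DMSO. Stopped with 600 uM cold SAM; streptavidin Flashplate capture, scintillation counts; % inhibition fitted to 3- or 4-parameter curve.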
In the case of CC(=O)N1CCC(Nc2cc(C(=O)NC[C@H](O)CN3CCc4ncn(C)c4C3)ncn2)CC1 [Compound 3-30, (S)-6-((1-acetylpiperidin-4-yl)amino)-N-(2-hydroxy-3-(3-methyl-6,7-dihydro-3H-imidazo[4,5-c]pyridin-5(4H)-yl)propyl)pyrimidine-4-carboxamide], the IC50 is reported as over 10 µM. CC(=O)N1CC(Nc2cc(C(=O)NC[C@H](O)CN3CCc4c(cnn4C)C3)ncn2)C1 [Compound 3-29] showed an IC50 of over 10 µM. For O=C(COc1cccc2cccnc12)NCC(O)CN1CCc2ccsc2C1 (stereo not drawn) [Compound 1-5, N-(2-hydroxy-3-{4H,5H,6H,7H-thieno[2,3-c]pyridin-6-yl}propyl)-2-(quinolin-8-yloxy)acetamide], the IC50 was under 0.1 µM.
